Assay results reported in patent US10869931B2, “Polyethylene glycol-modified angiogenesis inhibitor HM-1 and application thereof” (NANJING ANJI BIOLOGICAL TECHNOLOGY CO.,LTD, priority 2016, dated 2020).
Several values for one entry are separate records, joined by “and”; a condition that tells them apart may be missing. Identical values can stand only once. Marks after values point to notes of the source that are not given here. Where no end group is shown, it is not given here.

Experiments:
[1] = system: neovascularization in rat model of premature retinopathy; assay: Fluctuating-oxygen rat model of premature retinopathy (endothelial nuclei count); type: in vivo; conditions: for Cell nuclei count: day 14
Experimental: A fluctuating oxygen-induced animal model was used to randomly divide the newborn rats that were naturally delivered on the same day (within 12 hours) into three groups: the oxygenated model group, the oxygenated treatment group, and the normal control group. The oxygenated model group was subdivided into three subgroup models and along with the oxygenated treatment group was placed in a semi-closed oxygen chamber made of plexiglass. The chamber was connected to medical oxygen, and the oxygen analyzer was adjusted to a concentration of 80%±2%. After 24 hours, Nitrogen gas was introduced into the oxygen chamber, and the oxygen concentration was adjusted to 10%±2% and maintained for 24 h. This process was repeated, so that the oxygen concentration in the oxygen chamber is switched between 80% and 10% every 24 hours, and then transferred to the air for 7 days. The oxygen concentration was monitored 8 times a day, and the ambient temperature in the control cabin was 23° C.±2° C. Bedding change, adding food, changing water and replacing mother rats were performed once a day. The normal control group was placed in an animal facility environment. […] The oxygenated therapeutic components were divided into four subgroups, and on the 7th day of modeling, mPEG-SC-HM-1, mPEG2-NHS-HM-1, mPEG-ALD10k-HM-1, and mPEG-bALD-HM-1 were respectively administered by intravitreal injection. Only normal saline was administered to the oxygen model group and the control group. The administrations continued for 1 week. […] After immersion in wax, serial section at thickness of 4 μm was performed, wherein the sections were kept away from the optic disc. The sections are parallel to the sagittal plane of the cornea to the optic disc. Ten sections per eyeball were randomly selected from each eyeball to be stained with hematoxylin and eosin, and the number of vascular endothelial cells that broke through the retinal inner membrane was counted (only the vascular endothelial nucleus closely related to the inner retinal membrane was counted), and the average numbers of endothelial cells per eyeball per slice was counted.

sarcoma tumor cells = assay: MTT proliferation inhibition, sarcoma cells; type: cell-based, human; parameters: concentration or dose not given beside the values; conditions: 48 h
Experimental: The activity of mPEG-HM-1 to inhibit the growth of various tumor cells was examined by MTT assay. The tumor cells were cultured to a concentration of 90% or more in a 37° C., 5% CO2 incubator and collected by trypsinization. The cells were resuspended in the culture medium and counted under a microscope to adjust the cell concentration to 2×10^4 cells/mL, the cell suspension was inoculated into a 96-well plate at 100 μL/well and incubated overnight at 37° C. in a 5% CO2 incubator. mPEG-HM-1 was diluted with the culture solution to each predetermined concentration. Docetaxel is diluted to the final concentration with the culture medium. After the cells were fully attached, each dilution was added to a 96-well plate (100 μL/well). The mPEG-HM-1 dilution was added as a drug-administered group, and docetaxel was added as a positive control group, and a culture solution without any drug was used as a negative control group. Incubate for 48 h at 37° C. in a 5% CO2 incubator. 5 mg/mL of MTT was added to a 96-well plate at 20 μL per well, and incubation was continued for 4 hours. The medium was aspirated, dissolved in 150 μL of DMSO per well, and gently mixed by shaking for 10 min. The absorbance was measured at a measurement wavelength of 570 nm and a reference wavelength of 630 nm using a microplate reader, and the rate of growth inhibition (proliferation inhibition, PI) was calculated. The formula is as follows: PI (%)=1−administration group/negative group
The test was repeated 3 times independently, and the results obtained by the test were expressed as mean±SD, and the test results are shown in Table 15 to Table 18.

[2] = system: human retinal vascular endothelial cells (HRCEC); assay: MTT proliferation of human retinal vascular endothelial cells; type: cell-based; conditions: 48 h; for Inhibition rate: HRCEC proliferation; for A570 nm-A630 nm: HRCEC; for A570 nm-A630 nm / inhibition rate of HRCEC proliferation: MTT
Experimental: The activity of the angiogenesis inhibitor polypeptide to inhibit proliferation of human retinal vascular endothelial cells was examined by MTT assay. HRCEC cells were cultured in a 37° C., 5% CO2 incubator to a density of 90% or more, and collected by trypsinization. The cells were resuspended in the culture medium and counted under a microscope to adjust the cell concentration to 3.0×10^4 cells/mL. The cell suspension was inoculated into a 96-well plate at 100 μL per well and cultured overnight at 37° C. in a 5% CO2 incubator. After the cells were completely adhered, the angiogenesis inhibitor polypeptide was added as the administration group, and Avastin was used as the positive control group, and the culture media without any drug was used as a blank control group, and the culture media were diluted to each predetermined concentration. Each dilution was separately added to a 96-well plate at 100 μL per well and incubated for 48 h at 37° C. in a 5% CO2 incubator. 20 μL of 5 mg/mL MTT was added to each well of a 96-well plate and incubation was continued for 4 h. The medium was aspirated and dissolved in 100 μL of DMSO per well. […] The formula is as follows: PI (%)=1−administration group/negative group
The test was repeated 3 times independently. The results obtained by the test were expressed as mean±SD, and a statistical T test was performed. *P<0.05 was a significant difference, and **P<0.01 was a very significant difference.

[3] = 200 μg intravitreal for 1 week from day 7, vascular endothelial nuclei per slice
[4] = 100 μg intravitreal for 1 week from day 7, vascular endothelial nuclei per slice
[5] = 50 μg intravitreal for 1 week from day 7, vascular endothelial nuclei per slice

Substance | Cell nuclei count [1, 3] | rate of growth inhibition (sarcoma tumor cells) | Inhibition rate ([2]; 80 μg/mL) | A570 nm-A630 nm ([2]; 80 μg/mL) | Inhibition rate ([2]; 100 μg/mL) | A570 nm-A630 nm ([2]; 100 μg/mL) | Inhibition rate ([2]; 120 μg/mL) | A570 nm-A630 nm ([2]; 120 μg/mL) | Cell nuclei count [1, 4] | vascular endothelial cell nuclei count ([1]; neonatal rats, 100 μg intravitreal, 1 week) | Inhibition rate ([2]; 60 μg/mL) | A570 nm-A630 nm ([2]; 60 μg/mL) | inhibition rate of HRCEC proliferation ([2]; 100 μg/mL) | Cell nuclei count [1, 5] | Inhibition rate ([2]; 40 μg/mL) | A570 nm-A630 nm ([2]; 40 μg/mL) | inhibition rate of HRCEC proliferation ([2]; 80 μg/mL) | Cell nuclei count ([1]; 25 μg intravitreal for 1 week from day 7, vascular endothelial nuclei breaking through inner retinal membrane per slice) | Inhibition rate ([2]; 20 μg/mL) | A570 nm-A630 nm ([2]; 20 μg/mL)
mPEG-ALD40k-Arg-Gly-Ala-Asp-Arg-Ala-Gly-Gly-Gly-Gly-Arg-Gly-Asp ({mPEG‑ALD 40 kDa}-RGADRAGGGGRGD) [mPEG-ALD40k-HM-1] | 8.673 ± 2.756 | 45.93 ± 10.77% | 43.11%* | 0.7457 ± 0.07094 | 54.23%** | 0.5999 ± 0.07138 | 62.08%* | 0.4970 ± 0.07653 |  |  |  |  |  |  |  |  |  |  |  | 
mPEG-bALD40k-Arg-Gly-Ala-Asp-Arg-Ala-Gly-Gly-Gly-Gly-Arg-Gly-Asp ({mPEG‑bALD 40 kDa}-RGADRAGGGGRGD) [mPEG-bALD40k-HM-1] | 8.539 ± 2.218 | 47.90 ± 10.70% | 44.81%* | 0.7349 ± 0.07082 | 55.03%** | 0.5988 ± 0.07291 | 63.12%* | 0.4911 ± 0.07534 |  |  |  |  |  |  |  |  |  |  |  | 
mPEG2-NHS40k-Arg-Gly-Ala-Asp-Arg-Ala-Gly-Gly-Gly-Gly-Arg-Gly-Asp ({mPEG2‑NHS 40 kDa}-RGADRAGGGGRGD) [mPEG2-NHS40k-HM-1] | 8.495 ± 3.036 | 46.46 ± 11.54% | 42.52%* | 0.7598 ± 0.07143 | 51.86%** | 0.6363 ± 0.07532 | 62.78%* | 0.4920 ± 0.07953 |  |  |  |  |  |  |  |  |  |  |  | 
mPEG-ALD20k-Arg-Gly-Ala-Asp-Arg-Ala-Gly-Gly-Gly-Gly-Arg-Gly-Asp ({mPEG‑ALD 20 kDa}-RGADRAGGGGRGD) [mPEG-ALD20k-HM-1] |  | 50.96 ± 11.68% | 55.90%** | 0.5780 ± 0.06987 | 68.15%* | 0.4175 ± 0.07301 |  |  | 7.036 ± 1.315 | 7.036±1.315 | 46.21%* | 0.7050 ± 0.07965 | 68.15% and 69.12% |  |  |  |  |  |  | 
mPEG-SC10k-Arg-Gly-Ala-Asp-Arg-Ala-Gly-Gly-Gly-Gly-Arg-Gly-Asp ({mPEG‑SC 10 kDa}-RGADRAGGGGRGD) [mPEG-SC10k-HM-1] |  | 45.49 ± 11.89% | 68.84%* | 0.4084 ± 0.07298 |  |  |  |  |  |  | 55.39%** | 0.5847 ± 0.07356 |  | 8.528 ± 3.109 | 46.44%* | 0.7020 ± 0.07964 | 68.84% |  |  | 
mPEG2-NHS10k-Arg-Gly-Ala-Asp-Arg-Ala-Gly-Gly-Gly-Gly-Arg-Gly-Asp ({mPEG2‑NHS 10 kDa}-RGADRAGGGGRGD) [mPEG2-NHS10k-HM-1] |  | 43.59 ± 12.39% | 65.13%* | 0.4609 ± 0.07165 |  |  |  |  |  |  | 54.72%** | 0.5985 ± 0.07472 |  | 8.786 ± 3.072 | 45.83%* | 0.7160 ± 0.07829 | 65.13% |  |  | 
mPEG2-NHS5k-Arg-Gly-Ala-Asp-Arg-Ala-Gly-Gly-Gly-Gly-Arg-Gly-Asp ({mPEG2‑NHS 5 kDa}-RGADRAGGGGRGD) [mPEG2-NHS5k-HM-1] |  | 38.41 ± 11.10% |  |  |  |  |  |  |  |  | 61.08%* | 0.5144 ± 0.08531 |  |  | 50.65%** | 0.6523 ± 0.08688 |  | 9.212 ± 3.134 | 40.94%* | 0.7807 ± 0.09103
mPEG-bALD20k-Arg-Gly-Ala-Asp-Arg-Ala-Gly-Gly-Gly-Gly-Arg-Gly-Asp ({mPEG‑bALD 20 kDa}-RGADRAGGGGRGD) [mPEG-bALD20k-HM-1] |  | 50.91 ± 10.64% | 57.32%** | 0.5683 ± 0.07055 | 69.12%* | 0.4112 ± 0.07405 |  |  | 7.158 ± 1.724 |  | 47.53%* | 0.6987 ± 0.07838 |  |  |  |  |  |  |  | 
mPEG-SC40k-Arg-Gly-Ala-Asp-Arg-Ala-Gly-Gly-Gly-Gly-Arg-Gly-Asp ({mPEG‑SC 40 kDa}-RGADRAGGGGRGD) [mPEG-SC40k-HM-1] | 8.089 ± 2.935 | 45.26 ± 11.61% | 42.27%* | 0.7567 ± 0.07109 | 53.16%** | 0.6139 ± 0.0712 | 63.68%* | 0.4760 ± 0.07009 |  |  |  |  |  |  |  |  |  |  |  | 
